These results are taken from paper PMC12339163, “Combining Plant Bioactives With Antibiotics for Enhanced Antibiofilm Activity Against Uropathogenic Staphylococcus spp. and Cytotoxicity Evaluation” (Advances in Pharmacological and Pharmaceutical Sciences, 2025).

In one test the test system is S. epidermidis. Briefly: MIC and MBC, broth microdilution. The class given is cell-based, Staphylococcus epidermidis. To be noted: Staphylococcus epidermidis, geometric mean, S. epidermidis (n = 3). The method, then:
(§1) Seven clinical isolates of Staphylococcus spp. including 2 S. aureus, 3 S. saprophyticus, and 2 S. epidermidis were used. They were isolated from urine samples in our previous study. Two reference strains (S. aureus ATCC1026 and S. epidermidis ATCC35984) obtained from the American Type Culture Collection were also included. They were kept in the mixture of glycerol and Mueller Hinton Broth (MHB) (1:1) at −20°C, and the activation was achieved using the streak technique on Mueller Hinton agar (MHA) medium.
(§2) The MICs of ATBs and NPs were determined by the broth microdilution method as previously described. NPs and ATBs were, respectively, prepared at 4096 µg/mL and 512 µg/mL and serially diluted twofold with MHB in a 96-well microplate at a volume of 100 µL. Then, the wells were filled with 100 µL of inoculum (1.5 × 10^6 CFU/mL) to give final concentrations ranging from 1024 µg/mL to 0.5 µg/mL and 128 µg/mL to 0.062 µg/mL of NPs and ATBs, respectively. The microplates were incubated for 24 h at 37°C. Wells containing only bacterial inoculum were used as the negative control. After incubation, a volume of 40 µL of INT solution (0.2 mg/mL) was added to each well, and the microplate was incubated at 37°C for 30 min. Viable bacteria cells change the yellow dye of INT to a pink color. The MIC was considered as the lowest concentration of the sample at which there was no change in the coloration of the medium, corresponding to the complete inhibition of microbial growth.
(§3) All tests were performed in triplicate.
In general terms: In broth dilution the organism is exposed to a series of concentrations in liquid medium.

Test [1] deals with planktonic cells of Staphylococcus aureus. Briefly: Checkerboard combination assay, planktonic cells. It counts as cell-based. To be noted: Staphylococcus aureus, S. aureus, mean, read-out: MIC alone, ATB. The method, then: (§4) The checkerboard assay, as previously described, was used for the determination of the fractional inhibitory concentration index (FICI). Briefly, 50 µL of MHB was distributed into each well of a 96-well microplate. ATBs were serially diluted along the abscissa, and NPs were serially diluted along the ordinate. Then, 100 µL of bacterial inoculum (1.5 × 10^6 CFU/mL) was added to each well and incubated at 37°C for 24 h. The final concentration ranged from 0.125 to 128 µg/mL for ATBs and 4–512 µg/mL for NPs. After incubation, a volume of 40 µL of INT solution (0.2 mg/mL) was added to each well, and the microplate was incubated at 37°C for 30 min. The wells containing bacterial inoculum and MHB were used as a positive control, while wells containing only MHB + 1% glucose were used as a negative control and used as a blank. Viable bacteria cells change the yellow dye of INT to a pink color. The MICs were considered to be the lowest NP concentrations that prevented the color change medium. Subsequently, the FICI was calculated according to the formula FICI = (MIC of the ATBs in combination/MIC of the ATBs alone) + (MIC of a natural substance in combination/MIC of the natural substance alone). FICI values were interpreted as follows: synergy when FICI ≤ 0.5; additive when 0.5 < FICI ≤ 1; indifference when 1 < FICI ≤ 4; and antagonism when FICI > 4.

The test system of test [2] is planktonic cells of Staphylococcus saprophyticus. Description: Checkerboard combination assay, planktonic cells. To be noted: Staphylococcus saprophyticus, S. saprophyticus, mean, read-out: MIC alone, ATB. The class given is cell-based. The method, then: as §4
The next test concerns S. epidermidis biofilm. Description: Biofilm eradication assay (MBEC, MTT). It counts as cell-based, Staphylococcus epidermidis. As to conditions: Staphylococcus epidermidis, 24 h; geometric mean, S. epidermidis (n = 3). The method, then: (§5) The determination of the biofilm eradication potential of NPs and ATBs was performed as previously described. Briefly, 100 µL of bacterial inoculum (1.5 × 10^6 CFU/mL) and 100 µL of MHB + 1% glucose were introduced into the microplate, incubated at 37°C for 24 h, and the microplate was gently emptied and washed three times with PBS. Then, 200 µL of ATBs or NPs at respective concentrations ranging from 8 to 1024 µg/mL and from 16 to 2048 µg/mL were incubated at 37°C for 24 h. Once incubation was completed, the microplate was processed as described above, and the percentage of biofilm eradication was calculated using the formula below. The minimal biofilm eradicating concentration (MBEC) was recorded as the lowest concentration of the test sample that reduces 100% of biofilm:(2) % biofilm eradication=ODcontrol−ODblank−ODtest−ODblank/ODcontrol−ODblank×100.

The test system of test [3] is S. aureus biofilm. Description: Biofilm inhibition assay (MBIC, MTT). The class given is cell-based, Staphylococcus aureus. As to conditions: Staphylococcus aureus, 24 h; geometric mean, S. aureus (n = 3). The method, then: (§6) The biofilm formation inhibitory activity of NPs and ATBs was carried out according to the method previously described. A total of 100 µL of bacterial inoculum (1.5 × 10^6 CFU/mL) was used, and 100 µL of each sample was added to the microplate to achieve final concentrations ranging from 0.25 µg/mL to 128 µg/mL for ATBs and from 8 µg/mL to 1024 µg/mL for NPs. Then, the microplate was incubated at 37°C for 24 h. After incubation, the plates were gently emptied and washed three times with a phosphate buffer solution at pH 7.2. Then, the MTT solution (0.5 mg/mL) prepared in PBS was introduced into each well, and the microplate was further incubated at 37°C for 24 h. Untreated wells containing bacterial suspension and MHB supplemented with 1% glucose were considered positive controls, and wells containing only MHB+1% glucose without bacteria were used as blanks. After incubation, the MTT solution was aspirated, then 150 µL of DMSO was introduced to dissolve the formazan crystal formed by viable bacteria, and the optical density (OD) was measured at 570 nm using a microplate reader (VERSA-max). The percentage of biofilm inhibition was calculated using the formula below, and the minimal biofilm inhibitory concentration (MBIC) was recorded as the lowest concentration of NPs or ATBs that inhibited 100% of biofilm:(1) % biofilm inhibition=ODcontrol−ODblank−ODtest−ODblank/ODcontrol−ODblank×100.

In test [4] the test system is S. aureus biofilm. Briefly: Biofilm eradication assay (MBEC, MTT). It counts as cell-based, Staphylococcus aureus. To be noted: Staphylococcus aureus, 24 h; geometric mean, S. aureus (n = 3). The method, then:
as §5

The subject of another test is S. aureus. Briefly: MIC and MBC, broth microdilution. The class given is cell-based, Staphylococcus aureus. To be noted: Staphylococcus aureus, geometric mean, S. aureus (n = 3). The method, then: as §1, §2, §3
The next test deals with S. saprophyticus biofilm. Description: Biofilm inhibition assay (MBIC, MTT). It counts as cell-based, Staphylococcus saprophyticus. As to conditions: Staphylococcus saprophyticus, 24 h; geometric mean, S. saprophyticus (n = 3). The method, then: as §6
The test system of a further test is S. saprophyticus. Briefly: MIC and MBC, broth microdilution. As to conditions: Staphylococcus saprophyticus, geometric mean, S. saprophyticus (n = 3). It counts as cell-based, Staphylococcus saprophyticus. The method, then: as §1, §2, §3

Molecules are shown by their SMILES. Converted amounts (≈) assume the structure as drawn. Read-outs that look alike come from different tables or passages of the source.

With `NCC[C@H](O)C(=O)N[C@@H]1C[C@H](N)[C@@H](O[C@H]2O[C@H](CN)[C@@H](O)[C@H](O)[C@H]2O)[C@H](O)[C@H]1O[C@H]1O[C@H](CO)[C@@H](O)[C@H](N)[C@H]1O` [Amikacin, amikacin], the MBC (in general, the smallest concentration meeting the test's criterion for killing) was more than 128 µg/mL in the test on S. epidermidis (antibiotics, read-out: MBC); more than 128 µg/mL with S. aureus (antibiotics, read-out: MBC); more than 128 µg/mL with S. saprophyticus (antibiotics, read-out: MBC). Also, the MIC (in general, the smallest concentration in the dilution series that meets the test's criterion for growth inhibition) in the test on S. epidermidis (read-out: MIC) was 1.16 µg/mL (≈ 1.98 µM); in [1] (24 h), 4.33 µg/mL; in test [1], 4.33 µg/mL; in test [2] (24 h), 22 µg/mL; in test [2], 22 µg/mL; in the test with S. aureus (read-out: MIC), 4.33 µg/mL (≈ 7.39 µM). Besides, in the test on S. saprophyticus (read-out: MIC), the MIC is 22 µg/mL (≈ 37.6 µM). Moreover, the minimal effective concentration (in general, the smallest amount tested that counted as effective) was 21.3 µg/mL in the test on S. epidermidis biofilm, 1.83 µg/mL with S. aureus biofilm [3], 13.3 µg/mL in the test with S. aureus biofilm [4] and 2.08 µg/mL in the test on S. saprophyticus biofilm.
